Experimental data published in the supplement of paper PMC11127212.

Experiments:
[1] = retention time on BEH HILIC column (20 min gradient, 0.4 mL/min); higher = later elution; settings: LC: HILIC
Protocol: (§1)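 Reference standards (20-100 uM) were separated by HILIC UPLC (BEH HILIC, 45 °C): acidic pH 3.0 ammonium formate/formic acid for ESI+ and basic pH 9.0 ammonium acetate/ammonia for ESI-. They were analysed on a Synapt G2-Si traveling-wave IMS-QTOF with nitrogen drift gas (WH 30 V; WV 800 m/s in ESI+ and 1000 m/s in ESI-).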

[2] = collision cross section (TWIMS, N2) of ion [M-H]-; higher = larger gas-phase ion cross section; settings: ionization: ESI negative; LC: HILIC, pH 9.0 ammonium acetate
Protocol: as §1

[3] = collision cross section (TWIMS, N2) of ion [M+Na]+; higher = larger gas-phase ion cross section; settings: ionization: ESI positive; LC: HILIC, pH 3.0 ammonium formate
Protocol: as §1, with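 “ESI-). CCS (TWCCSN2, Å2) was calibrated with Major Mix IMS/TOF and LockCCS leucine enkephalin; inter-day RSD was <1%.” for “ESI-).”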

[4] = collision cross section (TWIMS, N2) of ion [M+H]+; higher = larger gas-phase ion cross section; settings: ionization: ESI positive; LC: HILIC, pH 3.0 ammonium formate
Protocol: as §1

[5] = ionization: ESI negative, pH 9.0 ammonium acetate
[6] = ionization: ESI positive, pH 3.0 ammonium formate

retention time on BEH HILIC column [1, 5] | retention time on BEH HILIC column [1, 6] | collision cross section [2] | collision cross section [3] | collision cross section [4] | Compound
0.9 min | 0.93 min | 143.64 Å² | 161.96 Å² | – | COc1cc(/C=C/C(=O)O)ccc1O [trans-ferulic acid]
3.07 min | 3.12 min | 128.72 Å² | 129.97 Å² | – | O=C(O)c1ccc(CO)o1 [Sumiki's acid]
12.1 min | 9.32 min | 148.86 Å² | 154.07 Å² | – | O=P(O)(O)OC[C@H]1OC(O)[C@H](O)[C@@H](O)[C@@H]1O (some centres undefined) [Glucose 6-phosphate]
– | 2 min | – | 131.78 Å² | – | OC1OC[C@@H](O)[C@H](O)[C@H]1O (stereo partly drawn) [D-xylose]
– | 3.88 min | – | 143.24 Å² | – | OC[C@H]1O[C@@H](O)[C@H](O)[C@@H](O)[C@@H]1O [D-glucose]
– | 2.08 min | – | 128.38 Å² | – | OC[C@@H](O)[C@@H](O)CO [Erythritol]
2.31 min | 2.28 min | 121.62 Å² | – | 125.05 Å² | Oc1ncnc2nc[nH]c12 [Hypoxanthine]
6.68 min | 6.47 min | 129.46 Å² | – | 133.13 Å² | CC[C@H](C)[C@H](N)C(=O)O [L-isoleucine]
3.65 min | 3.62 min | 125.12 Å² | – | 128.49 Å² | Nc1nc(=O)c2[nH]cnc2[nH]1 [Guanine]
– | 2.28 min | – | 131.78 Å² | – | O[C@H]1[C@H](O)[C@H](O)OC[C@H]1O [D-arabinose]
– | 3.49 min | – | 140.11 Å² | – | OC[C@H]1O[C@](O)(CO)[C@@H](O)[C@@H]1O [D-fructose]
1.47 min | 1.47 min | 153.03 Å² | – | 146.3 Å² | O=c1ccn([C@@H]2O[C@H](CO)[C@@H](O)[C@H]2O)c(=O)[nH]1 [Uridine]
0.73 min | 0.73 min | 212.59 Å² | – | 216.53 Å² | Cc1c(C)c2c(c(C)c1O)CC[C@@](C)(CCC[C@H](C)CCC[C@H](C)CCCC(C)C)O2 [a-tocopherol]
12.7 min | 12.6 min | 129.28 Å² | – | 131.08 Å² | N[C@@H](Cc1cnc[nH]1)C(=O)O [L-histidine]
– | 4.2 min | – | 138.53 Å² | – | OC[C@H]1O[C@H](O)[C@H](O)[C@@H](O)[C@H]1O [D-galactose]
11.1 min | 10.8 min | 136.62 Å² | – | 136.63 Å² | N=C(N)NCCC[C@H](N)C(=O)O [L-arginine]
12.3 min | 13.5 min | 262.11 Å² | – | 260.23 Å² | CC(C)(COP(=O)(O)OP(=O)(O)OC[C@H]1O[C@@H](n2cnc3c(N)ncnc32)[C@H](O)[C@@H]1OP(=O)(O)O)[C@@H](O)C(=O)NCCC(=O)NCCSC(=O)CCC(=O)O [Succinyl-CoA]
12 min | 11.4 min | 143.16 Å² | – | 146.43 Å² | N[C@@H](CSSC[C@H](N)C(=O)O)C(=O)O [L-cystine]
1.03 min | 1.03 min | 144.8 Å² | – | 148.93 Å² | CCCCCCCCC(=O)OC [Methyl nonanoate]
1.13 min | 0.84 min | 137.2 Å² | – | 137.86 Å² | CCCCCCC(=O)OC [Methyl heptanoate]
10.6 min | 10.5 min | 243.71 Å² | – | 250.07 Å² | Cc1cc2nc3c(=O)[nH]c(=O)nc-3n(C[C@H](O)[C@H](O)[C@H](O)COP(=O)(O)OP(=O)(O)OC[C@H]3O[C@@H](n4cnc5c(N)ncnc54)[C@H](O)[C@@H]3O)c2cc1C [FAD]

retention time on BEH HILIC column [1, 5] | retention time on BEH HILIC column [1, 6] | collision cross section [2] | collision cross section [3] | collision cross section [4] | Compound
12 min | 9.15 min | 175.53 Å² | – | 167.89 Å² | Nc1ncnc2c1ncn2[C@@H]1O[C@H](COP(=O)(O)O)[C@@H](O)[C@H]1O [AMP]
4.65 min | 4.47 min | 136.52 Å² | – | 136.81 Å² | O=C(O)c1cc(O)c2cccc(O)c2n1 [Xanthurenic acid]
5.48 min | 6.77 min | 123.74 Å² | – | 126.02 Å² | O=C1CC[C@@H](C(=O)O)N1 [Pyroglutamic acid]
6.85 min | 6.79 min | 126.43 Å² | – | 123.49 Å² | CC(C)[C@H](N)C(=O)O [L-valine]
2.92 min | 2.66 min | 156.31 Å² | – | 156.61 Å² | Nc1c(C(=O)O)c2nc3c(C(=O)O)cccc3oc-2cc1=O [Cinnavalininate]
3.11 min | 5.57 min | 184.43 Å² | – | 182.66 Å² | Cc1cc2nc3c(=O)[nH]c(=O)nc-3n(C[C@H](O)[C@H](O)[C@H](O)CO)c2cc1C [Riboflavin]
1.78 min | 1.88 min | 153.03 Å² | – | 148.62 Å² | O=C(O)CCCC[C@@H]1SC[C@@H]2NC(=O)N[C@@H]21 [Biotin]
11.6 min | 11.3 min | 135.63 Å² | – | 131.69 Å² | NCCCC[C@H](N)C(=O)O [L-lysine]
0.88 min | 0.9 min | 141.98 Å² | – | 137.05 Å² | O=C(O)Cc1c[nH]c2ccccc12 [Indoleacetic acid]
– | 3.25 min | – | 135.32 Å² | – | O=C[C@H](O)[C@H](O)[C@H](O)[C@@H](O)CO [L-talose]
6.46 min | 6.26 min | 131.1 Å² | – | 131.44 Å² | CC(C)C[C@H](N)C(=O)O [L-leucine]
– | – | 138.92 Å² | 146.99 Å² | – | O=C(O)CC(O)c1cccc(O)c1 (centres undefined) [3-(3-hydroxyphenyl)-3-hydroxypropanoic acid]
11.2 min | 11.1 min | 129.53 Å² | – | 129.31 Å² | NCCC[C@H](N)C(=O)O [Ornithine]
4.13 min | 4.01 min | 134.49 Å² | – | 135.88 Å² | O=C(O)c1cc(=O)c2ccccc2[nH]1 [Kynurenic acid]
11.8 min | 12 min | 256.25 Å² | – | 248.16 Å² | CC(=O)SCCNC(=O)CCNC(=O)[C@H](O)C(C)(C)COP(=O)(O)OP(=O)(O)OC[C@H]1O[C@@H](n2cnc3c(N)ncnc32)[C@H](O)[C@@H]1OP(=O)(O)O [Acetyl-CoA]
6.02 min | 5.92 min | 138.51 Å² | – | 137.14 Å² | N[C@@H](Cc1ccccc1)C(=O)O [L-phenylalanine]
1.17 min | 0.72 min | 122.95 Å² | – | 134.39 Å² | O=C1O[C@H]([C@@H](O)CO)C(O)=C1O [Ascorbic acid]
17.5 min | 0.73 min | 201.16 Å² | – | 206.18 Å² | C=C1CC[C@H](O)C/C1=C/C=C1\CCC[C@]2(C)[C@@H]([C@H](C)CCCC(C)C)CC[C@@H]12 [Vitamin D3]
– | 3.02 min | – | 136.93 Å² | – | OC[C@@]1(O)OC[C@@H](O)[C@H](O)[C@@H]1O [D-tagalose]
– | 1.08 min | – | 140.74 Å² | – | O=C(O)C(CO)c1ccccc1 (centres undefined) [Tropate]
